Our source for the ED50 values is ChEMBL document CHEMBL1122042, “Chemical synthesis and molecular pharmacology of hydroxylated 1-(1-phenylcyclohexyl-piperidine derivatives” (1982).

The species named for the assay is Mus musculus. The experiment in a line: Effective dose for inhibition of phencyclidine binding measured in mouse rotarod assay. The class given is functional. Background: In the rotarod test animals must keep their balance on a rotating rod.
As usually defined, the ED50 is the midpoint of the dose-response relation. A low value points to greater potency. In turn, `c1ccc(C2(N3CCCCC3)CCCCC2)cc1` [PHENCYCLIDINE] registered an ED50 of 4 mg/kg.
In turn, `Oc1ccccc1C1(N2CCCCC2)CCCCC1` came in with an ED50 of 18 mg/kg.
The value for `OC1CCN(C2(c3ccccc3)CCCCC2)CC1` was 42 mg/kg; that for `OC1CCCC(c2ccccc2)(N2CCCCC2)C1` (stereo unspecified) was 49.9 mg/kg; that for `Oc1ccc(C2(N3CCCCC3)CCCCC2)cc1` was 28 mg/kg.
Take `Oc1cccc(C2(N3CCCCC3)CCCCC2)c1`: the ED50 was 2.2 mg/kg.
